Legend:
[1] = biological target: T1, PI5P4Kγ+ (Homo sapiens, UniProt Q8TBX8, D138G/D197E/E133P/E135D/E153T/E196G/G139A/N195G/S132L/S134N); experiment: biochemical
T1 sequence (Q8TBX8 with tags, fused parts or gaps INS131LPN/S132D/E133S/S134Q/E135A/G136R/D138G/G139A/E153T/N195G/E196G/D197E): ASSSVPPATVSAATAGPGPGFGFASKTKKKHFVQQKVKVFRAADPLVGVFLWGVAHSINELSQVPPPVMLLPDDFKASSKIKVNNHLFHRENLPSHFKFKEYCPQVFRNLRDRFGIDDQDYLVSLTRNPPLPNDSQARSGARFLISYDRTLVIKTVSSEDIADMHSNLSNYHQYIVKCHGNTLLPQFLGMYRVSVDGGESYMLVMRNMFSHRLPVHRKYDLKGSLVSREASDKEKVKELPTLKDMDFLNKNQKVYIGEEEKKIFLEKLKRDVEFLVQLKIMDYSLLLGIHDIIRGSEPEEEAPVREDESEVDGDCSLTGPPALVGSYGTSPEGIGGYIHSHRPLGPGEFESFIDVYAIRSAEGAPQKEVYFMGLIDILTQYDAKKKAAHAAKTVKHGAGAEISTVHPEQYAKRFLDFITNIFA

[2] = biological target: T2, PI5P4Kα (Homo sapiens, UniProt P48426); experiment: biochemical
T2 sequence (P48426 1-406): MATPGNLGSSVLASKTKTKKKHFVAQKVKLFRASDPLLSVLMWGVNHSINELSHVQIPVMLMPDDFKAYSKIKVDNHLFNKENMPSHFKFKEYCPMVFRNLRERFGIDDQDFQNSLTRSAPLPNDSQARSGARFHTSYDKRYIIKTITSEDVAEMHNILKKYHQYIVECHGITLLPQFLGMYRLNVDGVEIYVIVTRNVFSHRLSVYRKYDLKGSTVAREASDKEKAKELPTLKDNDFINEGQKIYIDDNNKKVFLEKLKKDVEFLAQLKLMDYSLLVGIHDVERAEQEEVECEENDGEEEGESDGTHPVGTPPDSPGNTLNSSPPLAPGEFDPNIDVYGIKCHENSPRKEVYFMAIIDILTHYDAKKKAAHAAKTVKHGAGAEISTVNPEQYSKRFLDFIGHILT

[3] = test system: PI5P4Kγ+; details: ratio PI5P4Kα IC50 / PI5P4Kγ+ IC50, ADP-Glo
[4] = biological target: T2, PI5P4Kα; details: for PI5P4Kα pIC50: footnote a: inconsistent replicates, value shown is upper limit; for ADP-Glo pIC50 PI5P4Kα: Table S1, two decimals, asterisk not explained
[5] = ADP-Glo pIC50 PI5P4Kγ+, Table S1, two decimals, asterisk not explained
[6] = ADP-Glo pIC50 PI5P4Kα, Table S1, two decimals, asterisk not explained
[7] = PI5P4Kγ+ pIC50, ADP-Glo, footnote a: inconsistent replicates, value shown is upper limit

| IC50 [1, 5] | IC50 [2, 6] | SMILES | also measured |
| --- | --- | --- | --- |
| 12.6 nM | 4370 nM | CC(=O)NCc1cc2c(Nc3ccc(S(=O)(=O)C4CCCC4)cc3)ncnc2s1 |  |
| 562 nM | 6920 nM | CN(C)C(=O)c1cc2c(Nc3ccc(S(C)(=O)=O)cc3)ncnc2s1 |  |
| 85.1 nM | 240 nM | COc1cnccc1-c1cc2c(Nc3ccc(C4CC4)cc3)ncnc2[nH]1 |  |
| 631 nM | 275 nM | COc1cnccc1-c1cc2c(Nc3ccc(C)c(C)c3)ncnc2s1 |  |
| 63.1 nM | 269 nM | COc1cnccc1-c1cc2c(Nc3ccc(C4CC4)cc3)ncnc2s1 |  |
| 28.8 nM | 2290 nM | COc1ncccc1-c1cc2c(Nc3ccc(S(C)(=O)=O)cc3)ncnc2s1 |  |
| 85.1 nM | 1100 nM | CS(=O)(=O)c1ccc(Nc2ncnc3sc(-c4ccc(F)cc4F)cc23)cc1 |  |
| 52.5 nM | 9770 nM | CS(=O)(=O)c1ccc(Nc2ncnc3sc(-c4ccc(F)cc4)cc23)cc1 |  |
| 36.3 nM | 2190 nM | CS(=O)(=O)c1ccc(Nc2ncnc3sc(-c4cnoc4)cc23)cc1 |  |
| 166 nM | 8710 nM | CS(=O)(=O)c1ccc(Nc2ncnc3sc(C(F)F)cc23)cc1 |  |
| 132 nM | 1170 nM | Cc1cc2c(Nc3ccc(N4CC(C)(C)CC4=O)cc3)ncnc2s1 |  |
| 75.9 nM | 7760 nM | Cc1cc2c(Nc3ccc(S(=O)(=O)C4CC4)cc3)ncnc2s1 |  |
| 8320 nM | 2950 nM | Cc1ccc(Nc2ncnc3sc(-c4cccnc4Cl)cc23)c(C)c1 |  |
| 67.6 nM | 195 nM | Clc1ncccc1-c1cc2c(Nc3ccc(C4CC4)cc3)ncnc2s1 |  |
| 39.8 nM | 5250 nM | O=C(NCc1cc2c(Nc3ccc(S(=O)(=O)C4CCCC4)cc3)ncnc2s1)c1ccc(C2(C(F)(F)F)N=N2)cc1 |  |
| 49 nM | 4680 nM | N#Cc1cc2c(Nc3ccc(S(=O)(=O)C4CCCC4)cc3)ncnc2s1 |  |
| 288 nM | 9770 nM | CCc1cc2c(Nc3ccc(N4CCCC4=O)c(C)c3)ncnc2s1 [CCc1cc2c(ncnc2s1)Nc1ccc(c(c1)C)N1CCCC1=O] |  |
| 214 nM | 7240 nM | COc1cc(Nc2ncnc3sc(C)cc23)ccc1N1CCCC1=O [COc1cc(ccc1N1CCCC1=O)Nc1ncnc2sc(cc12)C] |  |
| 7410 nM | 5010 nM | COc1cnccc1-c1cc2c(Nc3ccc(C)cc3C)ncnc2s1 [COc1cnccc1-c1cc2c(ncnc2s1)Nc1ccc(cc1C)C] |  |

| IC50 [1, 5] | IC50 [2, 6] | SMILES | also measured |
| --- | --- | --- | --- |
| 200 nM | 5370 nM | Cc1cc2c(Nc3ccc(N4CCCC4=O)c(C)c3)ncnc2s1 [Cc1cc2c(ncnc2s1)Nc1ccc(c(c1)C)N1CCCC1=O] |  |
| 389 nM | 2950 nM | Cc1cc(Nc2ncnc3sc(-c4cccnc4Cl)cc23)ccc1Cl [Cc1cc(ccc1Cl)Nc1ncnc2sc(cc12)-c1cccnc1Cl] |  |
| 7940 nM | 5250 nM | Cc1cc(Cl)ccc1Nc1ncnc2sc(-c3cccnc3Cl)cc12 [Cc1cc(ccc1Nc1ncnc2sc(cc12)-c1cccnc1Cl)Cl] |  |
| 8510 nM | 490 nM | Cc1ccc(Nc2ncnc3sc(-c4cccnc4Cl)cc23)cc1C [Cc1ccc(cc1C)Nc1ncnc2sc(cc12)-c1cccnc1Cl] |  |
| 2340 nM | 1450 nM | Cc1cccc(Nc2ncnc3sc(-c4cccnc4Cl)cc23)c1 [Cc1cccc(c1)Nc1ncnc2sc(cc12)-c1cccnc1Cl] |  |
|  |  | COc1ccc(-n2ncc3c(Nc4ccc(OC)c(Cl)c4)ncnc32)cc1 [Compound 4, reference compound] | Fold-selectivity (α IC50/γ IC50) [3]: 0.032; IC50 [1, 7]: 12600 nM |
| 15.5 nM |  | CS(=O)(=O)c1ccc(Nc2ncnc3sc(-c4cn[nH]c4)cc23)cc1 [Compound 7] | Fold-selectivity (α IC50/γ IC50) [3]: 79; PI5P4Kα pIC50 ([4]; ADP-Glo): 5.9; ADP-Glo pIC50 PI5P4Kα [4]: 5.88; IC50 [1, 7]: 15.8 nM |
|  |  | CS(=O)(=O)c1ccc(Nc2ncnc3sc(-c4ccncc4F)cc23)cc1 [Compound 12] | Fold-selectivity (α IC50/γ IC50) [3]: >250; PI5P4Kα pIC50 ([4]; ADP-Glo): <4.6; IC50 [1, 7]: 100 nM |
|  | 1480 nM | CS(=O)(=O)c1ccc(Nc2ncnc3sc(-c4cccnc4F)cc23)cc1 [Compound 16] | Fold-selectivity (α IC50/γ IC50) [3]: 50; IC50 [1, 7]: 31.6 nM; IC50 ([2]; PI5P4Kα pIC50, ADP-Glo, footnote a: inconsistent replicates, value shown is upper limit): ≥ 1580 nM |
| 1350 nM |  | Cc1ccc(Nc2ncnc3sc(-c4cccnc4C)cc23)cc1C [Compound 18] | Fold-selectivity (α IC50/γ IC50) [3]: 0.25; PI5P4Kα pIC50 ([4]; ADP-Glo): 6.5; ADP-Glo pIC50 PI5P4Kα [4]: 6.48; IC50 [1, 7]: 1260 nM |
| 4370 nM |  | Cc1ccc(Nc2ncnc3sc(-c4cccnc4C)cc23)c(C)c1 [Compound 19] | Fold-selectivity (α IC50/γ IC50) [3]: 0.79; PI5P4Kα pIC50 ([4]; ADP-Glo): 5.5; ADP-Glo pIC50 PI5P4Kα [4]: 5.48; IC50 [1, 7]: 3980 nM |
| 1910 nM |  | COc1ccc(Nc2ncnc3sc(-c4cccnc4C)cc23)cc1 [Compound 20] | Fold-selectivity (α IC50/γ IC50) [3]: 0.69; PI5P4Kα pIC50 ([4]; ADP-Glo): 5.9; ADP-Glo pIC50 PI5P4Kα [4]: 5.88; IC50 [1, 7]: 2000 nM |
| 1550 nM |  | Cc1ccc(Nc2ncnc3sc(-c4cccnc4C)cc23)cc1 [Compound 22] | Fold-selectivity (α IC50/γ IC50) [3]: 0.4; PI5P4Kα pIC50 ([4]; ADP-Glo): 6.2; ADP-Glo pIC50 PI5P4Kα [4]: 6.22; IC50 [1, 7]: 1580 nM |
| 389 nM |  | CCc1ccc(Nc2ncnc3sc(-c4cccnc4C)cc23)cc1 [Compound 23] | Fold-selectivity (α IC50/γ IC50) [3]: 1.6; PI5P4Kα pIC50 ([4]; ADP-Glo): 6.2; ADP-Glo pIC50 PI5P4Kα [4]: 6.22; IC50 [1, 7]: 398 nM |
| 110 nM |  | Cc1ncccc1-c1cc2c(Nc3ccc(C4CC4)cc3)ncnc2s1 [Compound 24] | Fold-selectivity (α IC50/γ IC50) [3]: 2.5; PI5P4Kα pIC50 ([4]; ADP-Glo): 6.6; ADP-Glo pIC50 PI5P4Kα [4]: 6.62; IC50 [1, 7]: 100 nM |
| 42.7 nM |  | CSc1ccc(Nc2ncnc3sc(-c4cnoc4)cc23)cc1 [Compound 29] | Fold-selectivity (α IC50/γ IC50) [3]: 6.0; PI5P4Kα pIC50 ([4]; ADP-Glo): 6.6; ADP-Glo pIC50 PI5P4Kα [4]: 6.59; IC50 [1, 7]: 39.8 nM |
| 24.5 nM |  | CSc1ccc(Nc2ncnc3sc(-c4c(C)noc4C)cc23)cc1 [Compound 30] | Fold-selectivity (α IC50/γ IC50) [3]: 6.3; PI5P4Kα pIC50 ([4]; ADP-Glo): 6.8; ADP-Glo pIC50 PI5P4Kα [4]: 6.81; IC50 [1, 7]: 25.1 nM |
|  |  | CS(=O)(=O)c1ccc(Nc2ncnc3scc(C4CC4)c23)cc1 [Compound 33] | PI5P4Kα pIC50 ([4]; ADP-Glo): <4.8; IC50 [1, 7]: 100 nM |
|  |  | CS(=O)(=O)c1ccc(Nc2ncnc3ccsc23)cc1 [Compound 36] | PI5P4Kα inhibition (in words) ([4]; ADP-Glo): undetectable; PI5P4Kα pIC50 ([4]; ADP-Glo): <4.3; IC50 [1, 7]: 50.1 nM |

| SMILES | IC50 [1, 5] | IC50 [2, 6] | also measured |
| --- | --- | --- | --- |
| Cc1c(C(=O)O)sc2ncnc(Nc3ccc(C(C)C)cc3)c12 [CC(C)c1ccc(cc1)Nc1ncnc2sc(c(c12)C)C(=O)O] |  | 2750 nM |  |
| CCc1ccc(Nc2ncnc3sc(-c4cccnc4Cl)cc23)cc1 [CCc1ccc(cc1)Nc1ncnc2sc(cc12)-c1cccnc1Cl] | 151 nM | 324 nM |  |
| CC(=O)N(C)c1ccc(Nc2ncnc3sc(C)cc23)cc1 [CN(C(=O)C)c1ccc(cc1)Nc1ncnc2sc(cc12)C] |  | 1120 nM |  |
| COc1cnccc1-c1cc2c(Nc3ccc(Cl)cc3)ncnc2s1 [COc1cnccc1-c1cc2c(ncnc2s1)Nc1ccc(cc1)Cl] | 63.1 nM | 1320 nM |  |
| COc1cnccc1-c1cc2c(Nc3ccc(SC)cc3)ncnc2s1 [COc1cnccc1-c1cc2c(ncnc2s1)Nc1ccc(cc1)SC] | 15.1 nM | 129 nM |  |
| COc1cnccc1-c1cc2ncnc(Nc3ccc(SC)cc3)c2s1 [COc1cnccc1-c1cc2ncnc(c2s1)Nc1ccc(cc1)SC] | 53.7 nM | 490 nM |  |
| CSc1ccc(Nc2ncnc3cc(-c4c(C)noc4C)sc23)cc1 [CSc1ccc(cc1)Nc1ncnc2cc(sc12)-c1c(noc1C)C] | 32.4 nM | 22.4 nM |  |
| CSc1ccc(Nc2ncnc3cc(-c4cccnc4C)sc23)cc1 [CSc1ccc(cc1)Nc1ncnc2cc(sc12)-c1cccnc1C] | 17 nM | 77.6 nM |  |
| CSc1ccc(Nc2ncnc3sc(-c4cncnc4)cc23)cc1 [CSc1ccc(cc1)Nc1ncnc2sc(cc12)-c1cncnc1] | 29.5 nM | 234 nM |  |
| CSc1ccc(Nc2ncnc3sc(C)cc23)cc1 [CSc1ccc(cc1)Nc1ncnc2sc(cc12)C] | 178 nM | 2340 nM |  |
| Cc1cc2c(Nc3ccc(Br)cc3)ncnc2s1 [Cc1cc2c(ncnc2s1)Nc1ccc(cc1)Br] |  | 6920 nM |  |
| Cc1ccc(Nc2ncnc3sc(-c4cccnc4Cl)cc23)cc1 [Cc1ccc(cc1)Nc1ncnc2sc(cc12)-c1cccnc1Cl] | 427 nM | 263 nM |  |

Source: paper PMC10583824, “The rational design of ARUK2007145, a dual inhibitor of the α and γ isoforms of the lipid kinase phosphatidylinositol 5-phosphate 4-kinase (PI5P4K)” (RSC Medicinal Chemistry, 2023)
